From patent US6043283A, “Tyramine compounds and their neuronal effects” (priority 1997, dated 2000)
Entries after “also recorded” stand apart in the source; their conditions may differ. Read-outs that look alike come from different tables or passages of the source. Ends that are not written are not given here.

Key:
[1] = test system: NTox released by Aβ1-42-stimulated microglia (neuron killing); assay: cells; type: cell-based, rat; conditions: for neuroprotective effect: Aβ1-42-stimulated microglia; for protective effect: 10 μM, 72 hours, FIG. 30
Text: . Briefly, hippocampal cells obtained from embryonic stage 18 rat fetuses were dispersed mechanically in the presence of 0.125% trypsin and plated onto poly-L-lysine coated glass coverslips in 24 well plates at 250,000 cells per well (resulting in adhering cell densities of about 1250 cells per mm^2) in chemically-defined N2 culture media containing 5% fetal bovine serum. Gradual reduction of serum began on day 10 in vitro with daily 1:1 volume replacements with chemically-defined media, until a final concentration of 0.6% serum was achieved. […]; see FIG. 18). In order to eliminate microglia, cultures were exposed to saporin (sap; a ribosome-inactivating protein; Davis and Wiley, 1989) coupled to acetylated LDL (ac-LDL) at a concentration of 10 μg/ml for 12 hours. […] Cultures depleted of microglia were then exposed to test substances in the presence or absence of exogenous microglia (100,000 cells per culture). […]. Controls included cultures without saporin-treatment, cultures without test substances, and cultures with test substances but lacking microglia.
(§1) On day 14 of culture, immediately following saporin treatment, test substances were added to the hippocampal cultures. Synthetic peptide were supplied as 1 mM stock solutions in 0.1 M phosphate buffered saline, pH 7.2, stored for at least 1 week at 4° C. before use. After 72 hours incubation, the cultures were fixed in 4% paraformaldehyde at room temperature for 18 hours and immuno-stained by overnight incubation with a mixture of anti-neurofilament antibodies (NF; SMI-311, 1:600; Stemberger Monoclonals, Inc.) plus anti-MAP-2 (Boehringer Mannheim, 184959; 1:600) at 4° C. in the presence of 2% horse serum and 0.3% triton X-100 to delineate both neuronal cell bodies and neurites. Astroglia were visualized using sheep anti-glial fibrillary acidic protein (GFAP, Sigma) as described by Giulian et al., 1989. Finally, to label all cell nuclei, the coverslips were exposed to 0.01% bisbenzimide (Hoechst 33258; Sigma) in PBS, pH 6.9, and rinsed in distilled water and mounted in glycerin. Immuno-labeled cells per field and nuclei per field were scored at 200X magnification using fluorescence microscopy. Data were expressed as % mean survival expressed in terms of parallel untreated control cultures after scoring at least 20 randomly selected fields for each of 3 coverslips.
The procedures described above and by Giulian et al, 1996, provided for the identification of tyramine compounds as therapeutic agents for neurodegenerative diseases or disorders including, for example, Alzheimer's disease. Cells from the brain of fetal rats were grown in tissue cultures. Microglial populations within the cultures were controlled following the method described in Example 5 above. Known amounts of Aβ peptides coupled to microspheres were added to the culture. The Aβ spheres stimulated the microglia to release NTox, which in turn destroyed the neurons. The neurons in the cultures were monitored for survival by immuno-staining.
Generally, drug assays involve the addition of known concentrations of a test agent over a range of concentrations. After 72 hours, the experiment is stopped and the neurons are identified by immuno-staining. The data is expressed as % neuronal survival […]. Dose response curves are then used to estimate Effective Dose50 % (ED50) of neuroprotective agents. […].
In this experiment, about 65% of the neurons were destroyed by the Aβ-stimulated microglia. […] Other tyramine compounds, including tyrosine esters, were neuroprotective (FIG. 30).
Following the methods described herein, numerous compounds were examined to determine their neuroprotective activity. […]

[2] = test system: Aβ1-42-stimulated microglia; type: cell-based, rat; conditions: for effect of signal transduction inhibitors on microglia stimulated by Aβ1-42: 0.01 to 100 μM, FIG. 11
Text: Briefly, hippocampal cells obtained from embryonic stage 18 rat fetuses were dispersed mechanically in the presence of 0.125% trypsin and plated onto poly-L-lysine coated glass coverslips in 24 well plates at 250,000 cells per well (resulting in adhering cell densities of about 1250 cells per mm^2) in chemically-defined N2 culture media containing 5% fetal bovine serum. Gradual reduction of serum began on day 10 in vitro with daily 1:1 volume replacements with chemically-defined media, until a final concentration of 0.6% serum was achieved. […] In order to eliminate microglia, cultures were exposed to saporin (sap; a ribosome-inactivating protein; Davis and Wiley, 1989) coupled to acetylated LDL (ac-LDL) at a concentration of 10 μg/ml for 12 hours. […] Cultures depleted of microglia were then exposed to test substances in the presence or absence of exogenous microglia (100,000 cells per culture). […] Controls included cultures without saporin-treatment, cultures without test substances, and cultures with test substances but lacking microglia.
as §1

[3] = test system: human microglia stimulated with S5; type: cell-based;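 note: drugs applied at 10 µM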
[4] = test system: microglia; assay: inhibition of SpheresAβ1-42 binding to microglia; set-up: species or system rat; conditions: for inhibition of SpheresAβ1-42 binding by peptides: 10 μmoles/l, 4 hours, 37° C.; for inhibition of SpheresAβ1-42 binding by GAGs and scavenger receptor ligands: heparin sulfate 50 μg/ml, dextran sulfate 500 μg/ml, ac-LDL 200 μg/ml
Description: Spheresmal-BSA (which bind to scavenger receptors) or SpheresAβ1-42 were incubated with microglia for 4 hours following pre-treatment of cells with trypsin (5000 units/ml at 37° C. for 60 min followed by inactivation with soybean trypsin inhibitor), with heparinase (heparin lyase EC 4.2.2.7; two consecutive treatments each of 0.01 units/ml for 60 min), or with chondroitinase ABC (chondroitin ABC lyase EC 4.3.3.4; two consecutive treatments each of 0.02 units/ml for 60 min). […] Microglia mixed with hippocampal neurons were treated with combinations of β-D-xyloside (1 mm), heparinase (0.02 units/ml), or chondroitinase (0.04 units/ml) and then exposed to plaques.
Each well then received 250,000 SpheresAβ1-42 or Spheresmal-BSA in the presence or absence of Aβ peptides, GAGs, or scavenger receptor ligands. Binding assays were carried out at 37° C. for 4 hours after which coverslips were dipped 10 times in phosphate buffer and fixed with 4% buffered paraformaldehyde. Microsphere adherence to cells was scored at 200 magnification with phase/fluorescence microscopy. Data, expressed as % inhibition of sphere binding, was calculated from total number of spheres per field noted for control cultures receiving spheres only. Values are based upon at least 3 coverslips from 2 independent experiments. […] Washed spheres were resuspended in 0.2 M borate buffer (pH 8.5) in the presence of 300 μg Aβ or 400 μg BSA in 6% DMSO. After overnight mixing at room temperature, the spheres were washed extensively and blocked by 1 M glycine (pH 8.0) for 30 minutes.

[5] = test system: rat microglia / hippocampal neurons; conditions: rat microglia; mostly 1 μmole/l
[6] = test system: rat microglia; assay: binding of Aβ-coupled microspheres to microglia; conditions: 4 hours at 37° C. (72 h in FIG. 23)

CCCCOc1ccc(O)cc1 [4-butoxyphenol]
neuroprotective activity (structure/function) ([1]; Example 14): little or no neuroprotective activity

NC(Cc1cc(O)c(O)cc1O)C(=O)O (stereo not drawn) [6--OH DOPA]
neuroprotective activity (structure/function) ([1]; Example 14): little or no neuroprotective activity

NCCc1cc(O)c(O)cc1O [6--OH dopamine]
neuroprotective activity (structure/function) ([1]; Example 14): little or no neuroprotective activity

NC(CCCCCP(=O)(O)O)C(=O)O (stereo not drawn) [AP7]
drug blockade of neuron killing, rat microglia [2]: prevented neuronal loss; also recorded: blocked neuron death | drug blockade of neuron killing, human microglia [3]: blocked neuron death

N[C@@H](Cc1ccc(O)c(O)c1)C(=O)O [DOPA]
neuroprotective activity (structure/function) ([1]; Example 14): little or no neuroprotective activity

CC(=O)NCCc1ccc(O)cc1 [acetylated tyramine]
neuroprotective activity (structure/function) [1]: little or no neuroprotective activity

CCN(CC)CCCC(C)Nc1ccnc2cc(Cl)ccc12 (stereo not drawn) [chloroquine]
effect of immunosuppressive drugs on microglia stimulated by Aβ1-42 ([2]; 0.1 to 10 μM, FIG. 10): had a protective effect; also recorded: inhibit neuron killing

COc1c(C=O)c(O)cc2c1C(=O)c1ccccc1C2=O [damacanthal]
effect of signal transduction inhibitors on microglia stimulated by Aβ1-42 [2]: had a protective effect

CC(C)(C)OC(=O)[C@@H](N)Cc1cc(I)c(O)c(I)c1 [di-iodinated tyrosine t-butyl ester]
neuroprotective effect [1]: have neuroprotective effects | neuroprotective activity (structure/function) ([1]; Example 14): enhance neuroprotective effects

NCCc1ccc(O)c(O)c1 [dopamine]
neuroprotective activity (structure/function) [1]: little or no neuroprotective activity

CN[C@@H](C)[C@H](O)c1ccccc1 [ephedrine]
neuroprotective activity (structure/function) ([1]; Example 14): little or no neuroprotective activity

CNC[C@H](O)c1ccc(O)c(O)c1 [epinephrine]
neuroprotective activity (structure/function) [1]: little or no neuroprotective activity

O=c1c(-c2ccc(O)cc2)coc2cc(O)cc(O)c12 [genistein]
effect of signal transduction inhibitors on microglia stimulated by Aβ1-42 [2]: had a protective effect

CC(C)(C)OC(=O)[C@@H](N)Cc1ccc(O)c(I)c1 [mono-iodinated tyrosine t-butyl ester]
neuroprotective effect [1]: have neuroprotective effects | neuroprotective activity (structure/function) ([1]; Example 14): enhance neuroprotective effects

NC[C@H](O)c1ccc(O)c(O)c1 [norepinephrine]
neuroprotective activity (structure/function) ([1]; Example 14): little or no neuroprotective activity

NCCc1ccccc1 [phenethylamine]
neuroprotective activity (structure/function) ([1]; Example 14): little or no neuroprotective activity

Nc1ccccc1N [phenylenediamine]
neuroprotective activity (structure/function) ([1]; Example 14): little or no neuroprotective activity

Oc1cccc(O)c1 [resorcinol]
neuroprotective activity (structure/function) ([1]; Example 14): little or no neuroprotective activity

NC(=O)[C@@H](N)Cc1ccc(O)cc1 [tyrosinamide]
neuroprotective activity (structure/function) ([1]; Example 14): little or no neuroprotective activity

C=CCOC(=O)[C@@H](N)Cc1ccc(O)cc1 [tyrosine allyl ester]
protective effect [1]: neuron survival was markedly enhanced | neuroprotective activity (structure/function) ([1]; Example 14): enhance neuroprotective effects

CCOC(=O)[C@@H](N)Cc1ccc(O)cc1 [tyrosine ethyl ester]
neuroprotective activity (structure/function) ([1]; Example 14): little or no neuroprotective activity

NNC(=O)[C@@H](N)Cc1ccc(O)cc1 [tyrosine hydrazide]
neuroprotective activity (structure/function) ([1]; Example 14): little or no neuroprotective activity

COC(=O)[C@@H](N)Cc1ccc(O)cc1 [tyrosine methyl ester]
neuroprotective activity (structure/function) ([1]; Example 14): little or no neuroprotective activity

N[C@@H](Cc1ccc(O)cc1)C(=O)Nc1ccc2ccccc2c1 [tyrosine β-naphthylamide]
neuroprotective activity (structure/function) ([1]; Example 14): enhance neuroprotective effects

N[C@@H](Cc1ccc(O)cc1)C(=O)O [tyrosine]
protective effect [1]: no protective effect | neuroprotective activity (structure/function) ([1]; Example 14): little or no neuroprotective activity

Aβ1-42Gln13Gln14: synthetic peptide Aβ1-42Gln13Gln14
inhibition of SpheresAβ1-42 binding by peptides [4]: unable to block | induction of neurotoxic microglia / neuron killing [5]: unable to elicit neurotoxic responses

Aβ10-42: Aβ peptide residues 10-42 (YEVHHQKLVFFAEDVGSNKGAIIGLMVGGVVIA; Amyloid-beta protein 42; UniProt P05067 681-713, looked up, fragment)
binding of peptide-coupled microspheres to microglia [6]: bound to microglia

Aβ17-43-microspheres: Aβ17-43 coupled to fluorescent microspheres (LVFFAEDVGSNKGAIIGLMVGGVVIAT; also: coupled to fluorescent microspheres; UniProt P05067 688-714, looked up, fragment)
binding of peptide-coupled microspheres to microglia [6]: no consistent association with microglia | binding of peptide-coupled microspheres to microglia ([6]; listed as Aβ17-43 coupled microspheres): not engulfed by microglia

Aβ36-42: Aβ peptide residues 36-42 (VGGVVIA; Amyloid-beta protein 42; UniProt P05067 707-713, looked up, fragment)
binding of peptide-coupled microspheres to microglia [6]: little cell binding | inhibition of SpheresAβ1-42 binding by peptides [4]: did not | blocking of Aβ1-42 induced microglial neurotoxicity by peptides ([2]; 10 μmoles/liter peptide, 1 μmole/liter Aβ1-42): did not

chondroitin sulfate
inhibition of SpheresAβ1-42 binding by GAGs and scavenger receptor ligands [4]: only heparin sulfate blocked; also recorded: not similar compounds

heparin sulfate
inhibition of SpheresAβ1-42 binding by GAGs and scavenger receptor ligands [4]: blocked; also recorded: reduction of binding | inhibition of SpheresAβ1-42 binding by GAGs and scavenger receptor ligands ([4]; listed as heparan sulfate): block Aβ binding to microglia

tyrosine butyl ester
protective effect [1]: neuron survival was markedly enhanced
